# Data taken from patent US10806717B2, “Methods and compositions for improving cognitive function” (The Johns Hopkins University, priority 2013, dated 2020).
# “Also recorded” adds a separate entry of the source.
# What was measured:
# [1] = tested on: reelin in Entorhinal Cortex (EC2); assay: In situ hybridization of reelin mRNA after chronic levetiracetam; format: in vivo, rat; conditions: levetiracetam 10 mg/kg/day, osmotic minipumps, four weeks (28 days), aged-impaired rats; vs AI-VEH p=0.033
# [2] = target: synaptic vesicle protein 2A (SV2A) (Homo sapiens, UniProt Q7L0J3); conditions: specific site in the CNS; cited from earlier work
# [3] = tested on: aMCI subjects; assay: Explicit 3-alternative forced choice task (lure stimuli); format: in vivo, human
# Experimental: As described above, the drug treatment period is the two weeks preceding Visit 1 or 2 (with the two week period preceding the other Visit being the placebo phase). […]
# The activity of the subject's medial temporal lobe is measured by functional MRI during the subject's participation in an explicit 3-alternative forced choice task, where participants view novel, repeated and similar (“lure”) stimuli. The Psychophysics Toolbox extensions in Matlab 7.0 (The MathWorks, Natick, Mass.) is used for stimulus presentation and behavioral data collection. Stimuli are color photographs of common objects. Each participant undergoes a series of testing runs during the functional imaging sessions, each run consisting of a mix of three types of image pairs: similar pairs, identical pairs and unrelated foils. These image pairs are fully randomized throughout the run and presented individually as a series of images (see FIG. 10A). Participants are instructed to make a judgment as to whether each object seen is new, old or similar. Of critical interest are the participants' responses when presented with the second of the pair of similar objects (the “lure”; see FIG. 10B). The correct identification by the subject of lure stimuli as “similar,” provides behavioral evidence of pattern separation, i.e., the separation of similar experiences into distinct non-overlapping representations. […]
# As described above, the drug treatment period is the two weeks preceding Visit 1 or 2 (with the two week period preceding the other Visit being the placebo phase). […] For the subjects receiving the 62.5 mg BID drug treatment, a quarter of a scored 250 mg tablet of levetiracetam is used to achieve a dose of 62.5 twice a day, i.e., 125 mg/day which is approximately 1.5 mg/kg/day.
# The activity of the subject's medial temporal lobe is measured by functional MRI during the subject's participation in an explicit 3-alternative forced choice task, where participants view novel, repeated and similar (“lure”) stimuli. […]
# Chain of synaptic vesicle protein 2A (SV2A) (Q7L0J3 whole entry, species assumed): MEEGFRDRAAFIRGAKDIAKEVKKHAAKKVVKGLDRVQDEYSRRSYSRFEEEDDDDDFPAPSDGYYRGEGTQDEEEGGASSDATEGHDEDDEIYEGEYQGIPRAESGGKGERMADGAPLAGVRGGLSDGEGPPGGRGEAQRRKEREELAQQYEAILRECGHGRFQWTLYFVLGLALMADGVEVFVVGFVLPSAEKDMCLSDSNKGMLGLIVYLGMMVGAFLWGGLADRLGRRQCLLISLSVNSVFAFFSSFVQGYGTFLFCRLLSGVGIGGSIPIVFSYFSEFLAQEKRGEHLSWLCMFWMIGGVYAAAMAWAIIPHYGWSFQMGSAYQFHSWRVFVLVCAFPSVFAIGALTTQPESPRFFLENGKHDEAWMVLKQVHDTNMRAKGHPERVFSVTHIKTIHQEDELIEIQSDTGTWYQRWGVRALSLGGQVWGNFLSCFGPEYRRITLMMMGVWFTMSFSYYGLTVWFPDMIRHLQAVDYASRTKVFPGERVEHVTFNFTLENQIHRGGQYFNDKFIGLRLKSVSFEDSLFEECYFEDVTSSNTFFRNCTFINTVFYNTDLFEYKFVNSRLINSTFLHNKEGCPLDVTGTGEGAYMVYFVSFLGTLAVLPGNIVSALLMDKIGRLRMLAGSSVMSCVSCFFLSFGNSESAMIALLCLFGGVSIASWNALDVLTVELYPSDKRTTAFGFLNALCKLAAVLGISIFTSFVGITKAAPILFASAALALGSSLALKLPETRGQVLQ
smiles,measurement,setting,value
"CC[C@@H](C(N)=O)N1CCCC1=O [levetiracetam, (2S)-2-(2-oxopyrrolidin-1-yl)butanamide]",reelin (mRNA expression) in entorhinal cortex,[1],restores the levels of reelin; also recorded: significantly increased the expression of reelin
same,binding to SV2A,[2],binds
same,performance in the memory task (similar vs old responses to lures),"[3]; levetiracetam 62.5 mg BID for two weeks vs placebo, p=0.041",improves significantly
same,performance in the memory task (similar vs old responses to lures),"[3]; levetiracetam 125 mg twice a day for two weeks vs placebo, p=0.039",improves significantly
same,performance in the memory task (similar vs old responses to lures),"[3]; levetiracetam 250 mg BID for two weeks vs placebo, p=0.2396",does not significantly improve
